In PubChem BioAssay AID216 (DTP/NCI, 2004) one finds T/C data, which are given here for ten compounds.

This test relates to BDF1 mice, P288 leukemia ip, survival T/C. Description: NCI In Vivo Anticancer Drug Screen. Data for tumor model P288 Lymphocytic Leukemia (intraperitoneal) in B6D2F1 (BDF1) mice. The settings on record: endpoint: survival time, mean or median, higher = longer survival. Here is the method:
The antitumor activity of compounds was measured in mice bearing transplantable tumors. Survival or tumor size were measured and the results are expressed as the measurement made in the treated group (T) divided by the measurement made in the vehicle treated control group (C). The tumor model used in this assay is P288 Lymphocytic Leukemia (intraperitoneal) in B6D2F1 (BDF1) mice

Setting [1] is: dose: 0.25 mg/kg/injection, schedule: Q01DX010 (ip), vehicle: saline.
Where [2] appears, read: dose: 0.5 mg/kg/injection, schedule: Q01DX010 (ip), vehicle: saline.
The mark [3] stands for this setting: dose: 2.0 mg/kg/injection, schedule: Q01DX010 (ip), vehicle: saline.
Where [4] appears, read: dose: 125.0 micrograms/kg/injection, schedule: Q01DX010 (ip), vehicle: saline.
The mark [5] stands for this setting: dose: 500.0 micrograms/kg/injection, schedule: Q01DX010 (ip), vehicle: saline.
[6] abbreviates: dose: 12.0 mg/kg/injection, schedule: Q01DX010 (ip), vehicle: saline.
Where [7] appears, read: dose: 3.75 mg/kg/injection, schedule: Q01DX Z (sc), vehicle: steriod suspending solution.
[8] abbreviates: dose: 10.0 mg/kg/injection, schedule: Q01DX010 (ip), vehicle: saline.

Each structure is given as a SMILES string. Where “and” joins values, the source holds several entries; their conditions need not be identical. Identical values can stand only once. Inconclusive results and toxic doses are left out.

Regarding `Cc1n[nH]c(=O)[nH]c1=O`, the T/C runs as follows: (dose: 50.0 mg/kg/injection, schedule: Q01DX Z (ip), vehicle: other) 104 % of control; (dose: 100.0 mg/kg/injection, schedule: Q01DX Z (ip), vehicle: other) 101 % of control; (dose: 200.0 mg/kg/injection, schedule: Q01DX Z (ip), vehicle: other) 101 % of control and 110 % of control; (dose: 400.0 mg/kg/injection, schedule: Q01DX Z (ip), vehicle: other) 101 % of control and 110 % of control; (dose: 800.0 mg/kg/injection, schedule: Q01DX Z (ip), vehicle: other) 97 % of control.
For `CC(=O)NC1=C(N2CC2)C(=O)C(NC(C)=O)=C(N2CC2)C1=O`, the T/C runs as follows: under setting [1], 105 % of control; under setting [2], 166 % of control; (dose: 1.0 mg/kg/injection, schedule: Q01DX010 (ip), vehicle: saline) 222 % of control; under setting [3], 111 % of control; under setting [4], 105 % of control; (dose: 250.0 micrograms/kg/injection, schedule: Q01DX010 (ip), vehicle: saline) 100 % of control. In addition, the T/C under setting [5] is 100 % of control and the T/C (dose: 1000.0 micrograms/kg/injection, schedule: Q01DX010 (ip), vehicle: saline) was 122 % of control.
As for `CS(=O)(=O)OCCN(CCOS(C)(=O)=O)c1ccc(N=O)cc1`, the T/C was 121 % of control under setting [2]; 90 % of control and 94 % of control under setting [3].
`N=C(N)c1ccc(Nc2ccc(C(=N)N)cc2)cc1`: the T/C by setting is: (dose: 1.6 mg/kg/injection, schedule: Q01DX Z (ip), vehicle: methylcellulose (MC)) 86 % of control; (dose: 3.0 mg/kg/injection, schedule: Q01DX010 (ip), vehicle: saline) 100 % of control; (dose: 6.0 mg/kg/injection, schedule: Q01DX010 (ip), vehicle: saline) 106 % of control; (dose: 6.25 mg/kg/injection, schedule: Q01DX Z (ip), vehicle: methylcellulose (MC)) 88 % of control; (dose: 6.3 mg/kg/injection, schedule: Q01DX Z (ip), vehicle: methylcellulose (MC)) 90 % of control; under setting [6], 100 % of control. Further, the T/C runs as follows: (dose: 12.5 mg/kg/injection, schedule: Q01DX Z (ip), vehicle: methylcellulose (MC)) 115 % of control; (dose: 24.0 mg/kg/injection, schedule: Q01DX010 (ip), vehicle: saline) 87 % of control; (dose: 25.0 mg/kg/injection, schedule: Q01DX Z (ip), vehicle: methylcellulose (MC)) 87 % of control.
As for `Oc1cc(CN(CCCl)CCCl)c(O)cc1CN(CCCl)CCCl`, the T/C runs as follows: (dose: 0.63 mg/kg/injection, schedule: Q01DX010 (ip), vehicle: saline) 100 % of control; (dose: 1.25 mg/kg/injection, schedule: Q01DX010 (ip), vehicle: saline) 111 % of control and 100 % of control; (dose: 1.88 mg/kg/injection, schedule: Q01DX Z (sc), vehicle: steriod suspending solution) 87 % of control; (dose: 2.5 mg/kg/injection, schedule: Q01DX010 (ip), vehicle: saline) 105 % of control; under setting [7], 104 % of control; (dose: 5.0 mg/kg/injection, schedule: Q01DX010 (ip), vehicle: saline) 105 % of control and 116 % of control. The T/C under setting [8] is 95 % of control.
As for `S=P(N1CCOCC1)(N1CC1)N1CC1`, the T/C was 92 % of control (dose: 3.1 mg/kg/injection, schedule: Q01DX Z (ip), vehicle: carboxymethylcellulose (CMC)); 119 % of control (dose: 6.25 mg/kg/injection, schedule: Q01DX Z (ip), vehicle: carboxymethylcellulose (CMC)); 95 % of control under setting [8]; 90 % of control (dose: 12.5 mg/kg/injection, schedule: Q01DX Z (ip), vehicle: carboxymethylcellulose (CMC)); 95 % of control (dose: 20.0 mg/kg/injection, schedule: Q01DX010 (ip), vehicle: saline); 86 % of control (dose: 25.0 mg/kg/injection, schedule: Q01DX Z (ip), vehicle: carboxymethylcellulose (CMC)).
`N#C[C@@H]1C2C=CC(CC2)[C@H]1C#N`: the T/C is, setting by setting: under setting [1], 89 % of control; (dose: 63.0 micrograms/kg/injection, schedule: Q01DX010 (ip), vehicle: saline) 105 % of control; under setting [4], 105 % of control; under setting [5], 111 % of control.
As for `CN(C)c1ccc(/C=C\c2ccnc3ccccc23)cc1`, the T/C (dose: 6.25 mg/kg/injection, schedule: Q01DX Z (ip), vehicle: water) is 98 % of control; the T/C under setting [6] is 88 % of control; the T/C (dose: 12.5 mg/kg/injection, schedule: Q01DX Z (ip), vehicle: water) was 98 % of control; the T/C (dose: 18.0 mg/kg/injection, schedule: Q01DX010 (ip), vehicle: saline) is 88 % of control; the T/C (dose: 25.0 mg/kg/injection, schedule: Q01DX Z (ip), vehicle: water) is 100 % of control; the T/C (dose: 27.0 mg/kg/injection, schedule: Q01DX010 (ip), vehicle: saline) was 94 % of control. In addition, the T/C by setting is: (dose: 40.0 mg/kg/injection, schedule: Q01DX010 (ip), vehicle: saline) 88 % of control; (dose: 50.0 mg/kg/injection, schedule: Q01DX Z (ip), vehicle: water) 105 % of control; (dose: 100.0 mg/kg/injection, schedule: Q01DX Z (ip), vehicle: water) 108 % of control; (dose: 200.0 mg/kg/injection, schedule: Q01DX Z (ip), vehicle: water) 90 % of control.
Consider `C[C@]12CCC(=O)C=C1CC[C@H]1[C@@H]3CC[C@](O)(C(=O)CO)[C@@]3(C)C[C@H](O)[C@@]12F`, for which the T/C (dose: 0.45 mg/kg/injection, schedule: Q01DX Z (sc), vehicle: steriod suspending solution) was 97 % of control; the T/C (dose: 0.9 mg/kg/injection, schedule: Q01DX Z (sc), vehicle: steriod suspending solution) is 98 % of control; the T/C (dose: 1.8 mg/kg/injection, schedule: Q01DX Z (sc), vehicle: steriod suspending solution) was 110 % of control and 97 % of control; the T/C under setting [7] is 106 % of control; the T/C (dose: 7.5 mg/kg/injection, schedule: Q01DX Z (sc), vehicle: steriod suspending solution) was 108 % of control; the T/C (dose: 15.0 mg/kg/injection, schedule: Q01DX Z (sc), vehicle: steriod suspending solution) was 106 % of control. Further, the T/C was 108 % of control (dose: 30.0 mg/kg/injection, schedule: Q01DX Z (sc), vehicle: steriod suspending solution); 102 % of control (dose: 60.0 mg/kg/injection, schedule: Q01DX Z (sc), vehicle: steriod suspending solution); 105 % of control (dose: 120.0 mg/kg/injection, schedule: Q01DX Z (sc), vehicle: steriod suspending solution).
For `O=C1CCC(N2C(=O)c3ccccc3C2=O)C(=O)N1` (stereo unspecified), the T/C by setting is: (dose: 18.75 mg/kg/injection, schedule: Q01DX Z (ip), vehicle: carboxymethylcellulose (CMC)) 91 % of control; (dose: 37.5 mg/kg/injection, schedule: Q01DX Z (ip), vehicle: carboxymethylcellulose (CMC)) 94 % of control; (dose: 75.0 mg/kg/injection, schedule: Q01DX Z (ip), vehicle: carboxymethylcellulose (CMC)) 97 % of control; (dose: 150.0 mg/kg/injection, schedule: Q01DX Z (ip), vehicle: carboxymethylcellulose (CMC)) 101 % of control and 88 % of control; (dose: 300.0 mg/kg/injection, schedule: Q01DX Z (ip), vehicle: carboxymethylcellulose (CMC)) 94 % of control; (dose: 600.0 mg/kg/injection, schedule: Q01DX Z (ip), vehicle: carboxymethylcellulose (CMC)) 87 % of control.
